According to US8022072B2, “Azolylmethylidenehydrazine derivative and use thereof” (Kaken Pharmaceutical Co., Ltd., priority 2007, dated 2011):
Values after ≈ are worked out from the molar mass of the structure shown.

How the values were obtained:
[1] = tested on: Malassezia furfur IFO-0656; experiment: Antifungal activity evaluation test, MIC by urease activity, Malassezia furfur IFO-0656; format: cell-based; conditions: IFO0656, 96 h, MU medium, 30° C., day 4 or 5, urease activity of 20% or below, read-out: MIC M. fur. IFO-0656
Protocol: (§1) The minimum inhibitory concentration (MIC) for Trichophyton mentagrophytes, Trichophyton rubrum, and Malassezia furfur was measured according to the following procedure. • Test compound solution: A test compound was dissolved in dimethyl sulfoxide (DMSO) at a concentration of 5 mg/mL as a stock solution. […] Then, as a test medium, a fungal solution of Trichophyton species was 100-fold diluted with Sabouraud Dextrose Broth (Difco), and a fungal solution of Malassezia furfur IFO-0656 was 100-fold diluted with MU medium to give each inoculum (2×10^4 cells/mL). • Measurement of MIC of Trichophyton fungi: Sabouraud Dextrose Broth (Difco) was dispensed by 100 μL to a given well of a 96 well flat microplate. Then, a test compound solution (2 μL) was added, and the mixture was thoroughly mixed with a plate mixer. A fungal solution (100 μL) was inoculated and cultured at 30° C. for 7 days. The presence or absence of the cell growth was visually observed, and the minimum medicament concentration at which the cell growth was prevented was taken as MIC (μg/mL). • Measurement of MIC of Malassezia furfur: Since the urease activity of this fungus and the fungus growth rate are co-related, MIC was evaluated by the following method using urease activity as an index. MU medium was dispensed by 100 μL to a given well of a 96 well flat microplate. Then, a test compound solution (2 μL) was added, and the mixture was thoroughly mixed with a plate mixer. A fungal solution (100 μL) was inoculated and cultured at 30° C. The culture was stopped on day 4 or 5 of culture when the color tone of the MU medium changes from yellow to red in visual observation of the fungus growth in a well free of addition of a test substance. Then the plate was stirred until the fungus became uniform, and the urease activity was measured based on the measurement of absorbance at 550 nm using a plate reader.

[2] = tested on: Trichophyton mentagrophytes KD-04; experiment: Antifungal activity evaluation test, MIC, Trichophyton mentagrophytes KD-04; format: cell-based; conditions: KD04, 168 h, Sabouraud Dextrose Broth, 30° C., 7 days, visual, read-out: MIC T. men. KD-04
Protocol: as §1

OVA-induced dermatitis = experiment: Ovalbumin (OVA)-induced dermatitis model, ear edema; format: in vivo, male ICR mouse; set-up: key: ratio of compound's ear edema inhibition rate to FK506's (FK506 = 1.0); conditions: test compound 1 w/v % (FK506 0.1 w/v %), 20 μL applied to auricle, 24 hours after induction
Protocol: (§2) The test compound was adjusted to 1 w/v % when in use with a solvent (acetone:olive oil=1:1, v/v)) and put to use. FK506 (control substance) was adjusted to 0.1 w/v % and used.
Male ICR mouse was sensitized by the administration of 0.2 mL of OVA-hydroxide aluminum gel suspension to the abdominal cavity. After 14 days from the sensitization, the thickness of the right auricle was measured with a micrometer (pre-value). After the measurement, 20 μL of 0.5 μg/mL OVA challenge liquid (solvent was physiological saline) was subcutaneously administered to the inside of the auricle to induce ear edema. About 5 minutes after the administration of the challenge liquid, 20 μL of the test compound was applied to the outside of the auricle. After 24 hours from the induction of ear edema, the thickness of the right auricle was measured by a method similar to the pre-value (post-value). The difference between the post-value and the pre-value of ear edema by each test compound was determined, based on which the inhibition rate was calculated. The activity of each test compound was calculated with the ear edema inhibition rate of FK506 as 1.0 (ear edema inhibition rate of each test compound/ear edema inhibition rate of FK506).

[3] = tested on: Trichophyton mentagrophytes SM-110; experiment: Antifungal activity evaluation test, MIC, Trichophyton mentagrophytes SM-110; format: cell-based; conditions: SM110, 168 h, Sabouraud Dextrose Broth, 30° C., 7 days, visual, read-out: MIC T. men. SM-110
Protocol: as §1

[4] = tested on: Trichophyton rubrum KD-101; experiment: Antifungal activity evaluation test, MIC, Trichophyton rubrum KD-101; format: cell-based; conditions: KD101, 168 h, Sabouraud Dextrose Broth, 30° C., 7 days, visual, read-out: MIC T. rub. KD-101
Protocol: as §1

TNCB-induced dermatitis = experiment: 2,4,6-Trinitrochlorobenzene (TNCB)-induced dermatitis model, ear edema; format: in vivo, male BALB/c mouse; conditions: test compound 1 w/v % (FK506 0.1 w/v %), 20 μL applied to auricle, 24 hours after induction
Protocol: as §2
The fur on the abdomen of male BALB/c mouse was shaved with a hair clipper, and 100 μL of 7 w/v % TNCB sensitizing liquid (solvent was acetone:olive oil=4:1, v/v) was applied. Six days after the sensitization, the thickness of the right auricle was measured with a micrometer (pre-value). After the measurement, 10 μL of 1 w/v % TNCB challenge liquid (solvent was acetone:olive oil=1:9, v/v) was applied to the inside of the right auricle to induce ear edema. About 5 minutes after the application of the challenge liquid, 20 μL of the test compound was applied to the outside of the auricle.
After 24 hours from the induction of ear edema, the thickness of the right auricle was measured by a method similar to the pre-value (post-value). The difference between the post-value and the pre-value of ear edema by each test compound was determined, based on which the inhibition rate was calculated. The activity of each test compound was calculated with the ear edema inhibition rate of FK506 as 1.0 (ear edema inhibition rate of each test compound/ear edema inhibition rate of FK506).

[5] = tested on: Trichophyton rubrum KD-107; experiment: Antifungal activity evaluation test, MIC, Trichophyton rubrum KD-107; format: cell-based; conditions: KD107, 168 h, Sabouraud Dextrose Broth, 30° C., 7 days, visual, read-out: MIC T. rub. KD-107
Protocol: as §1

[6] = tested on: Trichophyton mentagrophytes KD-04; experiment: Influence of keratin addition on anti-Trichophyton activity; format: cell-based; conditions: Trichophyton mentagrophytes, KD04, 168 h, 30° C., 7 days
Protocol: The MIC increase rate by the addition of keratin to a medium was measured by the following procedure. • Test compound solution: A test compound was dissolved in dimethyl sulfoxide (DMSO) at a concentration of 5 mg/mL as a stock solution. Diluting this solution with DMSO, a 2-fold dilution series was prepared. • Test strain: Trichophyton mentagrophytes KD-04 was used. Preparation of Fungal Inoculum: the Above-Mentioned Strain was suspended in 0.05% Tween 80-containing physiological saline, and adjusted to a fungus concentration of 2×10^6 cells/mL using a counting chamber. […] The physiological saline was removed, and the mixture was further washed once with physiological saline (3 mL). The physiological saline was removed, and a test compound solution (10 μL) and Sabouraud Dextrose Broth (Difco) (500 μL) were added to keratin, and the mixture was sufficiently stirred. Then, inoculum (500 μL) of T. mentagrophytes KD-04 was added, and the mixture was cultured at 30° C. for 7 days. As a comparison control, an experiment similar to the above was performed under conditions free of keratin addition.

[7] = T. mentagrophytes KD-04, free of keratin addition, read-out: MIC SDB alone
[8] = T. mentagrophytes KD-04, keratin 50 mg added, read-out: MIC SDB + keratin

Row | Compound | MIC [1] | MIC [2] | MIC [3] | MIC [4] | MIC [5] | MIC [6, 7] | MIC [6, 8] | OVA-induced dermatitis, with ear edema inhibition rate of FK506 as 1.0 (OVA-induced dermatitis) | TNCB-induced dermatitis, with ear edema inhibition rate of FK506 as 1.0 (TNCB-induced dermatitis)
1 | CN(C)N=C(c1ccccc1CCc1ccccc1)n1ccnc1 [Compound No. 6, N′-[1-imidazol-1-yl-1-(2-phenethylphenyl)methylidene]-N,N-dimethylhydrazine] | 0.78 µg/mL (≈ 2.45 µM) | 0.05 µg/mL (≈ 0.157 µM) | 0.1 µg/mL (≈ 0.314 µM) | 0.1 µg/mL (≈ 0.314 µM) | 0.05 µg/mL (≈ 0.157 µM) | – | – | 1.4 | 0.7
2 | CN(C)N=C(c1ccccc1OCCCCOc1ccccc1)n1ccnc1 [Compound No. 71, N′-[1-imidazol-1-yl-1-[2-(4-phenoxybutoxy)phenyl]methylidene]-N,N-dimethylhydrazine] | 0.05 µg/mL (≈ 0.132 µM) | 0.05 µg/mL (≈ 0.132 µM) | 0.1 µg/mL (≈ 0.264 µM) | 0.05 µg/mL (≈ 0.132 µM) | 0.025 µg/mL (≈ 0.0661 µM) | – | – | 0.9 | 0.9
3 | CCCCSc1ccccc1C(=NN(C)C)n1ccnc1 [Compound No. 82, N′-[1-(2-butylthiophenyl)-1-imidazol-1-ylmethylidene]-N,N-dimethylhydrazine] | 0.78 µg/mL (≈ 2.58 µM) | 0.05 µg/mL (≈ 0.165 µM) | 0.2 µg/mL (≈ 0.661 µM) | 0.1 µg/mL (≈ 0.331 µM) | 0.05 µg/mL (≈ 0.165 µM) | 0.1 µg/mL (≈ 0.331 µM) | 0.2 µg/mL | 1.1 | 0.6
4 | CCCCCOc1ccccc1C(=NN1CCCC1)n1ccnc1 [Compound No. 157, [1-imidazol-1-yl-1-(2-pentyloxyphenyl)methylidene]pyrrolidin-1-ylamine] | 0.2 µg/mL (≈ 0.613 µM) | 0.05 µg/mL (≈ 0.153 µM) | 0.1 µg/mL (≈ 0.306 µM) | 0.05 µg/mL (≈ 0.153 µM) | 0.05 µg/mL (≈ 0.153 µM) | – | – | 1.3 | 0.8
5 | c1ccc(OCCOc2ccccc2C(=NN2CCCC2)n2ccnc2)cc1 [Compound No. 161, [1-imidazol-1-yl-1-[2-(2-phenoxyethoxy)phenyl]methylidene]pyrrolidin-1-ylamine] | 0.39 µg/mL (≈ 1.04 µM) | 0.2 µg/mL (≈ 0.531 µM) | 0.39 µg/mL (≈ 1.04 µM) | 0.1 µg/mL (≈ 0.266 µM) | 0.1 µg/mL (≈ 0.266 µM) | – | – | 0.9 | 0.7

Continued, in another order:

Row | MIC [1] | MIC [2] | MIC [3] | MIC [4] | MIC [5] | MIC [6, 7] | MIC [6, 8] | Compound | OVA-induced dermatitis, with ear edema inhibition rate of FK506 as 1.0 (OVA-induced dermatitis) | TNCB-induced dermatitis, with ear edema inhibition rate of FK506 as 1.0 (TNCB-induced dermatitis)
6 | 0.2 µg/mL (≈ 0.574 µM) | 0.05 µg/mL (≈ 0.143 µM) | 0.2 µg/mL (≈ 0.574 µM) | 0.05 µg/mL (≈ 0.143 µM) | 0.05 µg/mL (≈ 0.143 µM) | – | – | CN(C)N=C(c1ccccc1CCCOc1ccccc1)n1ccnc1 [Compound No. 9, N′-[1-imidazol-1-yl-1-[2-(3-phenoxypropyl)phenyl]methylidene]-N,N-dimethylhydrazine] | 1.2 | 0.7
7 | 0.39 µg/mL (≈ 1.11 µM) | 0.2 µg/mL (≈ 0.571 µM) | 0.39 µg/mL (≈ 1.11 µM) | 0.05 µg/mL (≈ 0.143 µM) | 0.05 µg/mL (≈ 0.143 µM) | 0.1 µg/mL (≈ 0.285 µM) | 0.2 µg/mL | COc1ccc(COc2ccccc2C(=NN(C)C)n2ccnc2)cc1 [Compound No. 52, N′-[1-imidazol-1-yl-1-[2-(4-methoxybenzyloxy)phenyl]methylidene]-N,N-dimethylhydrazine] | 1.1 | 0.7
8 | 0.39 µg/mL (≈ 1.11 µM) | 0.1 µg/mL (≈ 0.285 µM) | 0.2 µg/mL (≈ 0.571 µM) | 0.1 µg/mL (≈ 0.285 µM) | 0.05 µg/mL (≈ 0.143 µM) | 0.05 µg/mL (≈ 0.143 µM) | 0.1 µg/mL | CN(C)N=C(c1ccccc1OCCOc1ccccc1)n1ccnc1 [Compound No. 66, N′-[1-imidazol-1-yl-1-[2-(2-phenoxyethoxy)phenyl]methylidene]-N,N-dimethylhydrazine] | 1.1 | 0.8
9 | 0.2 µg/mL (≈ 0.561 µM) | 0.05 µg/mL (≈ 0.14 µM) | 0.2 µg/mL (≈ 0.561 µM) | 0.05 µg/mL (≈ 0.14 µM) | 0.05 µg/mL (≈ 0.14 µM) | – | – | CN(C)N=C(c1sccc1OCCOc1ccccc1)n1ccnc1 [Compound No. 101, N′-[1-imidazol-1-yl-1-[3-(2-phenoxyethoxy)thiophen-2-yl]methylidene]-N,N-dimethylhydrazine] | 1.4 | 0.8
10 | 0.2 µg/mL (≈ 0.549 µM) | 0.2 µg/mL (≈ 0.549 µM) | 0.39 µg/mL (≈ 1.07 µM) | 0.1 µg/mL (≈ 0.274 µM) | 0.05 µg/mL (≈ 0.137 µM) | – | – | CCN(C)N=C(c1ccccc1OCCOc1ccccc1)n1ccnc1 [Compound No. 114, N-ethyl-N′-[1-imidazol-1-yl-1-[2-(2-phenoxyethoxy)phenyl]methylidene]-N-methylhydrazine] | 0.9 | 0.7
